Data from paper PMC12086361, “Downstream Signaling of Muscarinic M4 Receptors Is Regulated by Receptor Density and Cellular Environment” (Pharmacology Research & Perspectives, 2025).

Biological target: T1, human M4 receptor (hM4) (Homo sapiens, UniProt P08173)
T1 construct: gene CHRM4
T1 sequence (P08173 1-479): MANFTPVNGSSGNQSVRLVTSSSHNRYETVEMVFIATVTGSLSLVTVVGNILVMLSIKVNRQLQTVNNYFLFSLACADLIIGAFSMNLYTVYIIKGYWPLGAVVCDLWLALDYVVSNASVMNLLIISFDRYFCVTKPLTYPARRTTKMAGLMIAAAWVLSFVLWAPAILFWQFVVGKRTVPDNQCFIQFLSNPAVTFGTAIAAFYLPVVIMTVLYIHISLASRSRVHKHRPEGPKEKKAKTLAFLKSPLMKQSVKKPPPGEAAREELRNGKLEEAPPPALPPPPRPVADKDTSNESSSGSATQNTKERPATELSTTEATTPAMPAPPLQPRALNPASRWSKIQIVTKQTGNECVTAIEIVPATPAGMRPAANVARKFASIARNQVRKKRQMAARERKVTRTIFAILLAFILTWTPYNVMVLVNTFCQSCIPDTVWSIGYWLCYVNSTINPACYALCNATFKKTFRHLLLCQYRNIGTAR
Test: cADDis cAMP sensor FLIPR assay, HEK293 hM4, decrease of forskolin-stimulated cAMP
Format: cell-based
Details: read-out: HEK-293, hM4, cAMP (48 h) / Gi pEC50 /slope (converted)
Description: cADDis cAMP sensor FLIPR assay, HEK293 hM4, decrease of forskolin-stimulated cAMP on human M4 receptor (hM4)

First: CCOC(=O)N1CC2(CCC(N3CCC(N(CC)C(C)=O)CC3)C2)C1 (stereo not drawn) [compound 6, compound-6]
Second: COC(=O)N1CCC(N2CCC(n3c(=O)n(C)c4ccccc43)CC2)CC1 [compound 110, compound-110]
The EC50 of the first is 1.6-fold lower: 0.407 nM for the first, 0.646 nM for the second.

For `C[N+](C)(C)CC#CCN1CCCC1=O` [oxotremorine-M], the EC50 was 1.2 nM.
